Legend:
DU-145 = experiment: Cell viability SRB assay, 96 h; assay type: cell-based; conditions: Homo sapiens, DU-145, 96 h
Procedure: (§1) Cell viability (LNCaP, PC-3 prostate, DU145, PPC-1, and TSU-Pr1 prostate cancer cell lines, HT-29 colon cancer cell line, and MCF-7 breast cancer cell line) was quantitated using the sulforhodamine B (SRB) assay after 96 h coincubation with different concentrations of compound in 96-well plates. Cell viability of leukemia cells (K562 and doxorubicin-resistant K562/Dox) was quantitated by MTT assay after 96 h coincubation with different concentrations of compound in 96-well plates. Drug-induced apoptosis was determined by anti-histone ELISA assay and DNA laddering. Cell cycle progression was assessed by propidium iodide staining and fluorescence-activated cell sorting (FACS) analysis. In vitro tubulin polymerization assay was determined by CytoDYNAMIX ScreenTM3 (CDS-03) kits according to the manufacturer's instructions. Anti-apoptosis protein (Bcl-2 and Bcl-xl) and pro-apoptosis protein (Bax) were examined in LNCaP and PC-3 after 24 h incubation with different concentrations of compound 13 by Western blot assay. In vivo PC-3 xenograft studies were conducted by i.v. dosing of 50 mg/kg, 100 mg/kg and 150 mg/kg for 2 weeks.
(§2) Cells were plated in 96-well plates at a density of 800-5,000 cells/well, depending on the cell line, in their required growth media containing 10% fetal bovine serum. Preliminary studies were performed with each cell line using a variety of cell densities and incubation times to determine appropriate seeding densities. The compound of interest was dissolved in DMSO, diluted in cell culture medium (final DMSO concentration was less than 0.5% v/v), and added to quadruplicate wells at final concentrations ranging from 0 to 100 μM. Control wells to which only drug-free vehicle was added were included as negative controls.
(§3) Cells were incubated for 96 hour at 37° C. in a humidified atmosphere containing 5% carbon dioxide.
(§4) Cells were stained with SRB solution. […] WinNonlin was provided by a Pharsight Academic License to The Ohio State University.

PC-3 [1] = experiment: Cell viability SRB assay, 96 h; assay type: cell-based; conditions: Homo sapiens, PC-3, 96 h
Procedure: as §1, §2, §3, §4

PPC-1 [2] = experiment: Cell viability SRB assay, 96 h; assay type: cell-based; conditions: Homo sapiens, PPC-1, 96 h
Procedure: as §1, §2, §3, §4

LNCaP [3] = experiment: Cell viability SRB assay, 96 h; assay type: cell-based; conditions: Homo sapiens
Procedure: as §1, §2, §3, §4

PC-3 [4] = experiment: Cytotoxicity assay (SRB, 96 h); assay type: cell-based; conditions: Homo sapiens, PC-3, 96 h
WM164 = experiment: Cytotoxicity assay (SRB, 48 h); assay type: cell-based, human; conditions: Homo sapiens, WM164 melanoma
A375 = experiment: Cytotoxicity assay (SRB, 48 h); assay type: cell-based, human; conditions: Homo sapiens
LNCaP [5] = experiment: Cytotoxicity assay (SRB, 96 h); assay type: cell-based; conditions: Homo sapiens
Du 145 = experiment: Cytotoxicity assay (SRB, 96 h); assay type: cell-based; conditions: Homo sapiens; Du 145, 96 h
PPC-1 [6] = experiment: Cytotoxicity assay (SRB, 96 h); assay type: cell-based; conditions: Homo sapiens, PPC-1, 96 h
[7] = tested on: melanoma and prostate cancer cell lines; experiment: Cytotoxicity assay (SRB), summary over the cell lines of Table 3; assay type: cell-based; conditions: Homo sapiens
TSU = experiment: Cell viability SRB assay, 96 h; assay type: cell-based; conditions: Homo sapiens, TSU (TSU-Pr1)
Procedure: as §1, §2, §3, §4

| Compound | IC50 (DU-145) [µM] | IC50 (PC-3 [1]) [µM] | IC50 (PPC-1 [2]) [µM] | IC50 (LNCaP [3]) [µM] | IC50 (PC-3 [4]) [µM] | IC50 (LNCaP [5]) [µM] | IC50 (Du 145) [µM] | IC50 (PPC-1 [6]) [µM] | also measured |
| --- | --- | --- | --- | --- | --- | --- | --- | --- | --- |
| O=C(c1ccc(F)cc1)c1cccc(-c2cc3ccccc3n2S(=O)(=O)c2ccccc2)c1 [Compound 126, [3-(1-Benzenesulfonyl-1H-indol-2-yl)-phenyl]-(4-fluoro-phenyl)-methanone] | 4.01 | 1.5 | 0.55 | 1.56 |  |  |  |  |  |
| COC(=O)c1csc(C(=O)c2c[nH]c3ccccc23)n1 [Compound 59, methyl 2-(1H-indole-3-carbonyl)thiazole-4-carboxylate] |  | 90.4 ± 27.5 |  | 58.5 ± 14.3 |  |  |  |  |  |
| OC(c1cccc(-c2cc3ccccc3[nH]2)c1)c1cc2ccccc2[nH]1 (stereo not shown) [Compound 11, (1H-indol-2-yl)-[3-(1H-indol-2-yl)phenyl]methanol] | 11.6 | 13.5 | 3.8 | 5.6 |  |  |  |  | melting point: 82 to 85 °C |
| O=C(c1ccccc1)c1cccc(-c2cc3ccccc3[nH]2)c1 [Compound 80A, [3-(1H-Indol-2-yl)-phenyl]-phenyl-methanone] | 2.12 | 2 | 1.52 | 1.74 |  |  |  |  |  |
| COc1cc(C(=O)c2cc3ccc(Cl)cc3n2Cc2ccccc2)cc(OC)c1OC [Compound 120, (1-Benzyl-6-chloro-1H-indol-2-yl)(3,4,5-trimethoxyphenyl)methanone] |  |  |  |  | > 10 | > 10 | > 10 | > 10 | IC50 (WM164; WM164, 48 h): > 10 µM; IC50 (A375; A-375, 48 h, A375 melanoma): > 10 µM; IC50 [7]: > 10 µM |
| COc1ccc2cc(C(=O)c3cc(OC)c(OC)c(OC)c3)n(S(=O)(=O)c3ccccc3)c2c1 [Compound 107, (6-Methoxy-1-(phenylsulfonyl)-1H-indol-2-yl)(3,4,5-trimethoxyphenyl)methanone] |  |  |  |  | 2.66 | > 10 | > 10 | 1.05 | IC50 (WM164): > 10 µM; IC50 (A375; A-375, A375 melanoma): 8.22 µM; melting point: 156 to 158 °C |
| COc1cc(-c2cccc(C(O)c3cc4ccccc4n3S(=O)(=O)c3ccccc3)c2)cc(OC)c1OC (stereo not shown) [Compound 63, (1-Benzenesulfonyl-1H-indol-2-yl)-(3′,4′,5′-trimethoxy-biphenyl-3-yl)-methanol] | 38 | 11.6 | 21.8 | 4.2 |  |  |  |  |  |
| c1ccc2[nH]ccc2c1 [indole] | > 100 | > 100 | > 100 | > 100 |  |  |  |  | IC50 (TSU): > 100 µM |
| COc1ccc(C(=O)c2cccc(-c3cc4ccccc4[nH]3)c2)cc1 [Compound 84, [3-(1H-Indol-2-yl)-phenyl]-(4-methoxy-phenyl)-methanone] | 1.4 | 2.6 | 0.9 | 3.7 |  |  |  |  |  |
| COc1cc(C(=O)c2cc3ccc(F)cc3n2S(=O)(=O)c2ccccc2)cc(OC)c1OC [Compound 106, (6-Fluoro-1-(phenylsulfonyl)-1H-indol-2-yl)(3,4,5-trimethoxyphenyl)methanone] |  |  |  |  | > 10 | > 10 | > 10 | > 10 | IC50 (WM164; WM164, 48 h): > 10 µM; IC50 (A375; A-375, 48 h, A375 melanoma): > 10 µM; melting point: 171 to 173 °C |
| COc1ccc2[nH]c(C(=O)c3cc(OC)c(OC)c(OC)c3)cc2c1 [Compound 148, (5-Methoxy-1H-indol-2-yl)(3,4,5-trimethoxyphenyl)methanone] |  |  |  |  | 0.04 | 0.05 | 0.08 | 0.05 | IC50 (WM164): 0.04 µM; IC50 (A375; A-375, A375 melanoma): 0.03 µM; IC50 [7]: 0.05 µM |
| COc1cc(C(=O)c2cccc(-c3cc4ccccc4n3S(=O)(=O)c3ccccc3)c2)cc(OC)c1OC [Compound 67, [3-(1-Benzenesulfonyl-1H-indol-2-yl)-phenyl]-(3,4,5-trimethoxy-phenyl)-methanone] | 18 | 9.2 | 68.5 | 7.8 |  |  |  |  |  |
| COc1cc(C(=O)c2cc3ccc(Cl)cc3n2C)cc(OC)c1OC [Compound 119, (6-Chloro-1-methyl-1H-indol-2-yl)(3,4,5-trimethoxyphenyl)methanone] |  |  |  |  | 3.76 ± 0.83 | 1.04 ± 0.25 | > 10 | 4.33 ± 0.72 | IC50 (WM164): 8.08 ± 1.21 µM; IC50 (A375; A-375, A375 melanoma): 6.65 ± 0.33 µM |
| OCc1cccc(-c2cc3ccccc3[nH]2)c1 [Compound 130] | 21.8 | 65.1 ± 5.3 | 26.6 | 23.8 ± 3 |  |  |  |  |  |
| COc1cc(C(O)c2cccc(-c3cc4ccccc4[nH]3)c2)cc(OC)c1OC (stereo not shown) [Compound 66A, [3-(1H-Indol-2-yl)-phenyl]-(3,4,5-trimethoxy-phenyl)-methanol] | 7.2 | 5.9 | 1.9 | 3.1 |  |  |  |  |  |
| COc1cc(-c2cccc(C(=O)c3cc4ccccc4[nH]3)c2)cc(OC)c1OC [Compound 65, (1H-Indol-2-yl)-(3′,4′,5′-trimethoxy-biphenyl-3-yl)-methanone] | 16.2 | 4.6 | 4.1 | 3 |  |  |  |  |  |
| COc1cc(C(=O)c2cc3ccc(F)cc3[nH]2)cc(OC)c1OC [Compound 113, (6-Fluoro-1H-indol-2-yl)(3,4,5-trimethoxyphenyl)methanone] |  |  |  |  | > 10 | > 10 | > 10 | > 10 | IC50 (WM164; WM164, 48 h): > 10 µM; IC50 (A375; A-375, 48 h, A375 melanoma): > 10 µM; IC50 [7]: > 10 µM |
| COc1cc(-c2cccc(C(=O)c3cc4ccccc4n3S(=O)(=O)c3ccccc3)c2)cc(OC)c1OC [Compound 64, (1-Benzenesulfonyl-1H-indol-2-yl)-(3′,4′,5′-trimethoxy-biphenyl-3-yl)-methanone] | 29.2 | 29.2 | 44.7 | 4.9 |  |  |  |  | IC50 (TSU): 58.9 µM |
| COc1cc(C(=O)c2cc3ccc(C)cc3[nH]2)cc(OC)c1OC [Compound 116, (6-Methyl-1H-indol-2-yl)(3,4,5-trimethoxyphenyl)methanone] |  |  |  |  | > 10 | > 10 | > 10 | > 10 | IC50 (WM164; WM164, 48 h): > 10 µM; IC50 (A375; A-375, 48 h, A375 melanoma): > 10 µM; melting point: 179 to 181 °C |
| COc1cc(C(=O)c2cc3cc(F)ccc3[nH]2)cc(OC)c1OC [Compound 117, (5-Fluoro-1H-indol-2-yl)(3,4,5-trimethoxyphenyl)methanone] |  |  |  |  | 9.16 | 8.63 | 3.42 | 1 | IC50 (WM164; WM164, 48 h): 2.26 µM; IC50 (A375; A-375, 48 h, A375 melanoma): 2.21 µM; melting point: 196 to 198 °C |
| O=S(=O)(c1ccccc1)n1c(Cc2cccc(-c3cc4ccccc4n3S(=O)(=O)c3ccccc3)c2)cc2ccccc21 [Compound 9, (1-Benzenesulfonyl-1H-indol-2-yl)-[3-(1-benzenesulfonyl-1H-indol-2-yl)phenyl]methane] | > 100 | > 100 | > 100 | > 100 |  |  |  |  | IC50 (TSU): > 100 µM; melting point: 76 to 78 °C |
| O=C(c1ccc(F)cc1)c1cccc(-c2ccc3[nH]ccc3c2)c1 [Compound 125, (4-Fluoro-phenyl)-[3-(1H-indol-5-yl)-phenyl]-methanone] | 5.73 | 2.7 | 0.63 | 2.78 |  |  |  |  |  |
| COc1cc(C(O)c2cccc(-c3cc4ccccc4n3S(=O)(=O)c3ccccc3)c2)cc(OC)c1OC (stereo not shown) [Compound 66, [3-(1-Benzenesulfonyl-1H-indol-2-yl)-phenyl]-(3,4,5-trimethoxy-phenyl)-methanol] | 61.5 | 45 | 35.3 | 10.1 |  |  |  |  |  |

— patent US20120022121A1, “INDOLES, DERIVATIVES AND ANALOGS THEREOF AND USES THEREFOR” (priority 2007, published 2012)
